Measured values published in ChEMBL document CHEMBL1938230, “6-Position optimization of tricyclic 4-quinolone-based inhibitors of glycogen synthase kinase-3β: discovery of nitrile derivatives with picomolar potency” (Bioorg Med Chem Lett, 2012).

Key:
[1] = target: Mitogen-activated protein kinase 14 (Homo sapiens) (UniProt Q16539); assay: Inhibition of human P38alpha in HL-60 cells lysate assessed as reduction of labeling of acyl-phosphate ATP probe at 100 nM; assay type: cell-free
[2] = target: T1, Serine/threonine-protein kinase ULK3 (Homo sapiens) (UniProt Q6PHR2); assay: Inhibition of human ULK3 in HL-60 cells lysate assessed as reduction of labeling of acyl-phosphate ATP probe at 100 nM; assay type: cell-free
T1 sequence (whole entry): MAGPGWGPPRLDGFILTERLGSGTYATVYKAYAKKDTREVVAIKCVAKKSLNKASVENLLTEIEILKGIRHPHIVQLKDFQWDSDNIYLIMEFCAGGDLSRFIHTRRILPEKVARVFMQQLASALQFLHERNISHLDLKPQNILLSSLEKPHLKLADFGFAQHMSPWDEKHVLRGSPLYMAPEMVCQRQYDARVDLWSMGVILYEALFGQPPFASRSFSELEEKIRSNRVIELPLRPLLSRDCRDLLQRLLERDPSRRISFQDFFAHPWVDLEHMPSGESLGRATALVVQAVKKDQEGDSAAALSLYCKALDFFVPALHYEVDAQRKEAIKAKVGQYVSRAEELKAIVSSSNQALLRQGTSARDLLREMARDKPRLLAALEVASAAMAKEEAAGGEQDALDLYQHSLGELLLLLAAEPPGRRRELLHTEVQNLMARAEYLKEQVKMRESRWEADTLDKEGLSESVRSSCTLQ

[3] = target: T2, Phosphatidylinositol 4,5-bisphosphate 3-kinase catalytic subunit delta isoform (Homo sapiens) (UniProt O00329); assay: Inhibition of human PIK3CD in HL-60 cells lysate assessed as reduction of labeling of acyl-phosphate ATP probe at 100 nM; assay type: cell-free
T2 sequence (whole entry): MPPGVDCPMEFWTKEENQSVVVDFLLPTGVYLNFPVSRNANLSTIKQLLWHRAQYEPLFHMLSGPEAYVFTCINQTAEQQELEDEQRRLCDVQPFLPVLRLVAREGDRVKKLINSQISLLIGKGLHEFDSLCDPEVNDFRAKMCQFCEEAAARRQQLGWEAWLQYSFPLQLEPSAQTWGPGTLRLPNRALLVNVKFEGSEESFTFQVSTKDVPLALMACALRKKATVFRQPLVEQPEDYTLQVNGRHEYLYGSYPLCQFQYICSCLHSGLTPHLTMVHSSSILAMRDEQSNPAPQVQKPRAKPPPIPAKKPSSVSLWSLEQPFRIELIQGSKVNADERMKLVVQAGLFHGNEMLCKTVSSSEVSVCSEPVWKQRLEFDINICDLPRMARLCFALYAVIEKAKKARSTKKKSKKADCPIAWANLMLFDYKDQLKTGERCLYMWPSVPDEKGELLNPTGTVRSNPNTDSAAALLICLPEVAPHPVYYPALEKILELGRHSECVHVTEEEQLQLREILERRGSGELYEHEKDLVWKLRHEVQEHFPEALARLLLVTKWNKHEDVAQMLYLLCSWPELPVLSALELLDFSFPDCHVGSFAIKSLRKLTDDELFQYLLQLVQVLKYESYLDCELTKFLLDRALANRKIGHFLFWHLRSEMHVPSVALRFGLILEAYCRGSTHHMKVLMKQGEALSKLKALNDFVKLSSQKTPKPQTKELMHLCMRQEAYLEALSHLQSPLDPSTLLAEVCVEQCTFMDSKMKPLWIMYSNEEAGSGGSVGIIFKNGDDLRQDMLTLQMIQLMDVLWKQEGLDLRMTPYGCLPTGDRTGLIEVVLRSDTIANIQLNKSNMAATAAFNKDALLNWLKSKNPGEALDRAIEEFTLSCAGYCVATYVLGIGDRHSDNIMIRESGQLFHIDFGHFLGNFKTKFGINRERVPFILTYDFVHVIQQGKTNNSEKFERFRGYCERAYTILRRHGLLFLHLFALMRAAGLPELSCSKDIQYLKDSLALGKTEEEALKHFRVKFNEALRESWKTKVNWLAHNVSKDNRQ

HL-60 = assay: Inhibition of human AurA/AurB/AurC in HL-60 cells lysate assessed as reduction of labeling of acyl-phosphate ATP probe at 100 nM
[4] = target: Tyrosine-protein kinase ABL (Homo sapiens) (UniProt P00519+P42684); assay: Inhibition of human ABL/ARG in HL-60 cells lysate assessed as reduction of labeling of acyl-phosphate ATP probe at 100 nM; assay type: cell-free
Chain of Tyrosine-protein kinase ABL (Homo sapiens) (P00519 whole entry, looked up): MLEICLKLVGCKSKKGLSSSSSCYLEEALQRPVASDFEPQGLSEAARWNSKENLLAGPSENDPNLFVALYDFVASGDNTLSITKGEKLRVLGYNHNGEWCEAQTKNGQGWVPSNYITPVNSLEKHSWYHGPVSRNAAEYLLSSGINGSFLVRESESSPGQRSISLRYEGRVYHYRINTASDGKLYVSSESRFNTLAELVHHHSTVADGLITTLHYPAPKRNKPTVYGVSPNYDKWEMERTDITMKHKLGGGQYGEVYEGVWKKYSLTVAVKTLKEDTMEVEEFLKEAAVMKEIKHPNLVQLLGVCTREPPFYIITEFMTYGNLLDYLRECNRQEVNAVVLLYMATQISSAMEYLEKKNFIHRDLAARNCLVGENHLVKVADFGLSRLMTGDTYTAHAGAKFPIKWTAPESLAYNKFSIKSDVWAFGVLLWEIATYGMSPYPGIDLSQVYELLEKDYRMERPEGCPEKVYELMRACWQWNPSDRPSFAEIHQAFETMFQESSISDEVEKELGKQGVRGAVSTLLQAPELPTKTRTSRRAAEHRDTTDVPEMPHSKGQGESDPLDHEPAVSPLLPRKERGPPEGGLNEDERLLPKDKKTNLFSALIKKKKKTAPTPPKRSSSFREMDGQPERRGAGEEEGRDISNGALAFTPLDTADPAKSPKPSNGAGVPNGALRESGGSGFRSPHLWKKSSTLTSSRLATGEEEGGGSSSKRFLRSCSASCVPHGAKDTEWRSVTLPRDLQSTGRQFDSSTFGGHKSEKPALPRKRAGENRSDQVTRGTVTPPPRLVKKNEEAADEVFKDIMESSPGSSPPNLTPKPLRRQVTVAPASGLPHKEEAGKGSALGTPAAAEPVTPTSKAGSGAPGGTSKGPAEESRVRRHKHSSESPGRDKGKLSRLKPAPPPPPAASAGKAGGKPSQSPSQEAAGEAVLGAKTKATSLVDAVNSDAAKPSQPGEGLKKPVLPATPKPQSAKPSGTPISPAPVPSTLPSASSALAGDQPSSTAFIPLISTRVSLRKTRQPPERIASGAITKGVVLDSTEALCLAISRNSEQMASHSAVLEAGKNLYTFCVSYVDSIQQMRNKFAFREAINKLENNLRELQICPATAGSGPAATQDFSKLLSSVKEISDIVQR
Chain of Tyrosine-protein kinase ABL (Homo sapiens) (P42684 whole entry, looked up): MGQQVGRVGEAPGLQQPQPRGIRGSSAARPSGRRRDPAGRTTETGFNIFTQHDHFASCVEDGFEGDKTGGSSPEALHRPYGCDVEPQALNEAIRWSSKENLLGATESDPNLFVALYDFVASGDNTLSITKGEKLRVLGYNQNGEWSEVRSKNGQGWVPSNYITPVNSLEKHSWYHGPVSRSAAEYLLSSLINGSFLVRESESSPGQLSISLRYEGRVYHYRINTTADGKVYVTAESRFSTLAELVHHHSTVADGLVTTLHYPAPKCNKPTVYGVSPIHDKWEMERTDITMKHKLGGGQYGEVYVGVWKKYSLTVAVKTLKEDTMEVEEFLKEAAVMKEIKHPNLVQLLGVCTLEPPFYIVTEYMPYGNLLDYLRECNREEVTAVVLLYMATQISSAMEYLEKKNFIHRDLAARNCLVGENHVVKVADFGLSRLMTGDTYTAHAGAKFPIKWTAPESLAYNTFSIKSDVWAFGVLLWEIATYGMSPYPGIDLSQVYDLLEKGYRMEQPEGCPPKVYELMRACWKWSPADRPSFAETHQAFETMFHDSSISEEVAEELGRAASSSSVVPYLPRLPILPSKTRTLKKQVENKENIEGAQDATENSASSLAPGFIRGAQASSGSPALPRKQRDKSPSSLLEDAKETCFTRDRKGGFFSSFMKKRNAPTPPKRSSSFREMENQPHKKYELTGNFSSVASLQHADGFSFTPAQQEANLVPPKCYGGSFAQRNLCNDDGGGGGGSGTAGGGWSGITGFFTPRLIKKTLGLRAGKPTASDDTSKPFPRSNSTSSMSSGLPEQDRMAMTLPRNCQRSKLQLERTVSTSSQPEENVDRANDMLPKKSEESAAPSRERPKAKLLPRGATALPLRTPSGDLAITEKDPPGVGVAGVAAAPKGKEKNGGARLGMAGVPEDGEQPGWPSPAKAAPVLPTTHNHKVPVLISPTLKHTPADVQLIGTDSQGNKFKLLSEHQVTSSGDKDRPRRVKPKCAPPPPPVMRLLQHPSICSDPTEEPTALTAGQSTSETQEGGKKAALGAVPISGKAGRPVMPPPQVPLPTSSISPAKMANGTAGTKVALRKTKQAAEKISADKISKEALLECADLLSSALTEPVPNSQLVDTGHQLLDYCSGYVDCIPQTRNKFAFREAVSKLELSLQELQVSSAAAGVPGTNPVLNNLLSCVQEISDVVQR

[5] = target: Cyclin-dependent kinase 1 (Homo sapiens) (UniProt P06493); assay: Inhibition of human CDC2 in HL-60 cells lysate assessed as reduction of labeling of acyl-phosphate ATP probe at 100 nM; assay type: cell-free
Chain of Cyclin-dependent kinase 1 (Homo sapiens) (P06493 whole entry, looked up, the tested form may be a part): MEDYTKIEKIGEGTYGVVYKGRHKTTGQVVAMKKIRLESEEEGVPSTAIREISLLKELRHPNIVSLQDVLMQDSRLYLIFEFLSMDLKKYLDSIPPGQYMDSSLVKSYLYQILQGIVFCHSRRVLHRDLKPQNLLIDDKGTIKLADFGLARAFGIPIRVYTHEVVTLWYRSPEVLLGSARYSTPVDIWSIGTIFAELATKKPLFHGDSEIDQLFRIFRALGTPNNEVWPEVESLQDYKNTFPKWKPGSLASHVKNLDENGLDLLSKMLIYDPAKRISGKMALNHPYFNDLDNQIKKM

[6] = target: Tyrosine-protein kinase JAK1 (Homo sapiens) (UniProt P23458); assay: Inhibition of human JAK1 domain2 in HL-60 cells lysate assessed as reduction of labeling of acyl-phosphate ATP probe at 100 nM; assay type: cell-free
[7] = target: Cyclin-dependent kinase 14 (Homo sapiens) (UniProt O94921); assay: Inhibition of human PFTAIRE1 in HL-60 cells lysate assessed as reduction of labeling of acyl-phosphate ATP probe at 100 nM; assay type: cell-free
[8] = target: Tyrosine-protein kinase CSK (Homo sapiens) (UniProt P41240); assay: Inhibition of human CSK in HL-60 cells lysate assessed as reduction of labeling of acyl-phosphate ATP probe at 100 nM; assay type: cell-free
[9] = target: c-Jun N-terminal kinase, JNK (Homo sapiens) (UniProt P45983+P53779+P45984); assay: Inhibition of human JNK1/JNK2/JNK3 in HL-60 cells lysate assessed as reduction of labeling of acyl-phosphate ATP probe at 100 nM; assay type: cell-free
[10] = target: Dual specificity tyrosine-phosphorylation-regulated kinase 1B (Homo sapiens) (UniProt Q9Y463); assay: Inhibition of human DYRK1B in HL-60 cells lysate assessed as reduction of labeling of acyl-phosphate ATP probe at 100 nM; assay type: cell-free
Chain of Dual specificity tyrosine-phosphorylation-regulated kinase 1B (Homo sapiens) (Q9Y463 whole entry, looked up): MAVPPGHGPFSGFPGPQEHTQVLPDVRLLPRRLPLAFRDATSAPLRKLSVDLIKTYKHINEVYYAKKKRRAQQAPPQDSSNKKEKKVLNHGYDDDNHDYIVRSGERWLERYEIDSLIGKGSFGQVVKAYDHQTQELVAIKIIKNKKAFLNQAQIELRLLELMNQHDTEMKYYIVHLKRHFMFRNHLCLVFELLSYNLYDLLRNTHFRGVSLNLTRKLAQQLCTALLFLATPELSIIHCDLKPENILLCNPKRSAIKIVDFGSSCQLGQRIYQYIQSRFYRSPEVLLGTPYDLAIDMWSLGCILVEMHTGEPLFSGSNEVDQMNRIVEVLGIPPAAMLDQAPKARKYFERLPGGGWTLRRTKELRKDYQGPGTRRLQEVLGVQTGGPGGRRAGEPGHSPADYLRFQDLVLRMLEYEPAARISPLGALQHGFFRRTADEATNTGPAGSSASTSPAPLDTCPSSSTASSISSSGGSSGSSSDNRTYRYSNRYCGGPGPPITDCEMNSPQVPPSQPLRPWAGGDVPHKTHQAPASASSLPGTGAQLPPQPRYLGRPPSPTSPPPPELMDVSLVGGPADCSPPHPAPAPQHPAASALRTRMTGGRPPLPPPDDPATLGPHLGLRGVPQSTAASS

[11] = target: Cyclin-dependent kinase 5 (Homo sapiens) (UniProt Q00535); assay: Inhibition of human CDK5 in HL-60 cells lysate assessed as reduction of labeling of acyl-phosphate ATP probe at 100 nM; assay type: cell-free
Chain of Cyclin-dependent kinase 5 (Homo sapiens) (Q00535 whole entry, looked up): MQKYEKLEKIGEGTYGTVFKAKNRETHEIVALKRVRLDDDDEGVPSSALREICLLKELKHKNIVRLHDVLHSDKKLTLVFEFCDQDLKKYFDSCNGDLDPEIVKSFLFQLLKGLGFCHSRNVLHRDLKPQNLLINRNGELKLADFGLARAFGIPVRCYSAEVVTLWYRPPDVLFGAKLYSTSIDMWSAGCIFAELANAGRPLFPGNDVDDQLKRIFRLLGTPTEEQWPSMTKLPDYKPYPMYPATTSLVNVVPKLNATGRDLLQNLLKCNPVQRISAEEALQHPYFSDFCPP

[12] = target: Tyrosine-protein kinase Lyn (Homo sapiens) (UniProt P07948); assay: Inhibition of human LYN in HL-60 cells lysate assessed as reduction of labeling of acyl-phosphate ATP probe at 100 nM; assay type: cell-free
Chain of Tyrosine-protein kinase Lyn (Homo sapiens) (P07948 2-512 limits assumed): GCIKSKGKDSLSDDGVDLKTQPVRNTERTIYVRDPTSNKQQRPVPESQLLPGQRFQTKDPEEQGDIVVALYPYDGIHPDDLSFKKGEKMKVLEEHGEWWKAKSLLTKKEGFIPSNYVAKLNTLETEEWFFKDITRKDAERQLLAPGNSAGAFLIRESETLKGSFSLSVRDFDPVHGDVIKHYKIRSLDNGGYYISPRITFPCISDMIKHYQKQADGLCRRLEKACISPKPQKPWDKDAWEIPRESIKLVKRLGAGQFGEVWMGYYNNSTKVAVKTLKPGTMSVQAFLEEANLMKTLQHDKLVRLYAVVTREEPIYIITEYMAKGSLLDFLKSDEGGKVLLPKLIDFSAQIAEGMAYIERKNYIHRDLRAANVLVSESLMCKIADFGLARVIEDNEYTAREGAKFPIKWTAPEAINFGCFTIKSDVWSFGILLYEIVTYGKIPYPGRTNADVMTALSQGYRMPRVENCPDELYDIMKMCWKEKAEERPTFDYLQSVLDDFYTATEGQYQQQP

[13] = target: RAF proto-oncogene serine/threonine-protein kinase (Homo sapiens) (UniProt P04049); assay: Inhibition of human RAF1 in HL-60 cells lysate assessed as reduction of labeling of acyl-phosphate ATP probe at 100 nM; assay type: cell-free
Chain of RAF proto-oncogene serine/threonine-protein kinase (Homo sapiens) (P04049 whole entry): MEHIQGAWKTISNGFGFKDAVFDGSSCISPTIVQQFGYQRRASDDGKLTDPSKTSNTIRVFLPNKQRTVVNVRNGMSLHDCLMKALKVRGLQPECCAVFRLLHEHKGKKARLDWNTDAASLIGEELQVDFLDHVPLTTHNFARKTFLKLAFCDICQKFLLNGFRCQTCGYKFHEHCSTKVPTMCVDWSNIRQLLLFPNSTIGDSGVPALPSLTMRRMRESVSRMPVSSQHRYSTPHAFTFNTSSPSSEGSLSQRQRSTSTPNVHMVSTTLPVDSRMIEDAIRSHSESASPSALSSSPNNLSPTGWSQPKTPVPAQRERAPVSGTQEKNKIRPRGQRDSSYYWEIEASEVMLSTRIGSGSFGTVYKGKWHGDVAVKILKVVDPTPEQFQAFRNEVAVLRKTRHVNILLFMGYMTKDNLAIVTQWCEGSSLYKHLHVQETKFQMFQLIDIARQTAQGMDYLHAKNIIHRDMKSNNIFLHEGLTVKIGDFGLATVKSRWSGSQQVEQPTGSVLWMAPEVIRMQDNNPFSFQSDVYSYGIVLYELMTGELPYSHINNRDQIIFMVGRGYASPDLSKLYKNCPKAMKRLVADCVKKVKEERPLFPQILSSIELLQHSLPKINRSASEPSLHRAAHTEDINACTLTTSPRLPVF

Chain of Mitogen-activated protein kinase 14 (Homo sapiens) (Q16539 whole entry): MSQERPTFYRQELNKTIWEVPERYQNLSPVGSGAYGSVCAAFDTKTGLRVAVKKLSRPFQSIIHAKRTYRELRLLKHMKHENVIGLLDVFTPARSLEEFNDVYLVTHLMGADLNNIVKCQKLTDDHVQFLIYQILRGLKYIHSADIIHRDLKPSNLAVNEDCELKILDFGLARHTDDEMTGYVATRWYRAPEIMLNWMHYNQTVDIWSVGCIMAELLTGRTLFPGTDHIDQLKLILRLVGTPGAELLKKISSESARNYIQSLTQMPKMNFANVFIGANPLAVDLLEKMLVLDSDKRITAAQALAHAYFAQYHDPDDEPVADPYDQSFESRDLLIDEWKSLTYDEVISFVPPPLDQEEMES

C[C@H]1COc2c(NCCCn3cccn3)c(F)c(N)c3c(=O)c(C(=O)O)cn1c23
< 35%: inhibition [1] | inhibition [2] | inhibition [3] | inhibition at 0.1 µM (HL-60) | inhibition [4] | inhibition [5] | inhibition [6] | inhibition [7] | inhibition [8] | inhibition [9] | inhibition [10] | inhibition [11] | inhibition [12] | inhibition [13]

C[C@H]1COc2c(NCCCc3ccccn3)c(F)c(N)c3c(=O)c(C#N)cn1c23
< 35%: inhibition [1] | inhibition [2] | inhibition [3] | inhibition at 0.1 µM (HL-60) | inhibition [4] | inhibition [5] | inhibition [6] | inhibition [7] | inhibition [8] | inhibition [9] | inhibition [10] | inhibition [11] | inhibition [12] | inhibition [13]

C[C@H]1COc2c(NCCCn3cccn3)c(F)c(N)c3c(=O)c(C#N)cn1c23
< 35%: inhibition [1] | inhibition [2] | inhibition [3] | inhibition at 0.1 µM (HL-60) | inhibition [4] | inhibition [5] | inhibition [6] | inhibition [7] | inhibition [8] | inhibition [9] | inhibition [10] | inhibition [11] | inhibition [12] | inhibition [13]

C[C@H]1COc2c(NCCCc3ccccn3)c(F)c(N)c3c(=O)c(C(=O)O)cn1c23
< 35%: inhibition [1] | inhibition [2] | inhibition [3] | inhibition at 0.1 µM (HL-60) | inhibition [4] | inhibition [5] | inhibition [6] | inhibition [7] | inhibition [8] | inhibition [9] | inhibition [10] | inhibition [11] | inhibition [12] | inhibition [13]
